Measured values as given in paper PMC9635468, “Biological evaluation, docking studies, and in silico ADME prediction of some pyrimidine and pyridine derivatives as potential EGFR^WT and EGFR^T790M inhibitors” (Journal of Enzyme Inhibition and Medicinal Chemistry, 2022).
In brackets after ≈: the same amount, converted by molar mass.

Columns and labels:
[1] = tested on: HEP2; test: Cytotoxicity screening, SRB assay, HEP2; type: cell-based, human; details: for IC50: Homo sapiens, HEp-2, 48 h
Protocol: (§1) In this study, a panel of cell lines was examined for their chemosensitivity. Different concentrations of the synthesised pyridines and pyrimidine derivatives were used in this study (5, 12.5, 25, and 50 µg/mL) for all the examined cell lines. In this study, breast tumour cell line (MCF7), hepatocellular carcinoma cell line (HEPG2), larynx cell line (HEP2), lung cancer cell line (H460), colon cancer cell line (HCT116 and Caco2), hypopharyngeal cell line (FADU), and normal Vero cell line were applied. The full methodology is described in the Supplementary data (SI 1).
(§2) SI 1: Cytotoxicity screening against human cancer cell lines
(§3) In this study, a panel of cell lines was examined for their chemosensitivity. Different concentrations of the synthesized pyridines and pyrimidines derivatives were used in this study (5, 12.5, 25, and 50 µg/ml) for all the examined cell lines. The most sensitive cell line to the treatment regimen was selected and subjected to further investigations to explore the mechanism of this interaction. Human breast tumor cell line (MCF7), human hepatocellular carcinoma cell line (HEPG2), human larynx cell line (HEP2), human lung cancer cell line (H460), human colon cancer cell line (HCT116 and Caco2), human hypopharyngeal cell line (FaDu), and normal cell line Vero were used in this study. It was obtained from the American Type Culture Collection (ATCC, Minnesota, USA). The tumor cell line was maintained at National Cancer Institute (NCI), Cairo, Egypt.
(§4) The antitumor activities of pyridines and pyrimidines derivatives and all tested cell lines were evaluated by sulphorhodamine-B (SRB) assay 1. Briefly, cells were seeded at a density of 3 × 10^3 cells/well in 96-well microtiter plates. They were left to attach for 24 h before incubation with drugs. Next, cells were treated with different concentrations of 5, 12.5, 25, and 50 µg/ml for MCF7, HEPG2, HEP2, HCT116, Caco2, H460, FaDu, and Vero cells. For each concentration, three wells were used and incubation was continued for 48 h. DMSO was used as a control vehicle (1 % v/v). At the end of incubation, cells were fixed with 20 % trichloroacetic acid and stained with 0.4 % SRB dye. The optical density (O.D.) of each well was measured spectrophotometrically at 570 nm using an ELISA microplate reader (TECAN sunrise™, Germany). The mean survival fraction at each drug concentration was calculated as follows: […]
(§5) O.D. of the treated cells/O.D. of the control cells. The IC50 (concentration that produces 50% of cell growth inhibition) value of each drug was calculated using sigmoidal dose-response curve-fitting models (Graph Pad Prizm software, version 5) 1.

[2] = tested on: FADU; test: Cytotoxicity screening, SRB assay, FADU; type: cell-based, human; details: 48 h; for IC50: Homo sapiens, FaDu
Protocol: as §1, §2, §3, §4, §5

[3] = tested on: MCF7; test: Cytotoxicity screening, SRB assay, MCF7; type: cell-based, human; details: for IC50: Homo sapiens, MCF7, 48 h
Protocol: as §1, §2, §3, §4, §5

[4] = tested on: T47D; test: Cytotoxicity screening, SRB assay, T47D; type: cell-based, human; details: 48 h; for IC50: Homo sapiens, T47D
[5] = tested on: HCT116; test: Cytotoxicity screening, SRB assay, HCT116; type: cell-based, human; details: for IC50: Homo sapiens, HCT-116, 48 h
Protocol: as §1, §2, §3, §4, §5

[6] = tested on: HEPG2; test: Cytotoxicity screening, SRB assay, HEPG2; type: cell-based, human; details: for IC50: Homo sapiens, HepG2, 48 h
Protocol: as §1, §2, §3, §4, §5

[7] = tested on: NF-kB; parameters: method as in PMID 25108361; details: inhibitory potential against NF-kB; cited from earlier work
[8] = tested on: H460; test: Cytotoxicity screening, SRB assay, H460; type: cell-based, human; details: for IC50: Homo sapiens, NCI-H460, 48 h
Protocol: as §1, §2, §3, §4, §5

[9] = tested on: CaCo2; test: Cytotoxicity screening, SRB assay, CaCo2; type: cell-based, human; details: for IC50: Homo sapiens, Caco-2, 48 h
Protocol: as §1, §2, §3, §4, §5

[10] = tested on: VERO; test: Cytotoxicity screening, SRB assay, normal Vero cells; type: cell-based; details: 48 h, normal cell line; for IC50: Chlorocebus sabaeus, Vero
Protocol: as §1, §2, §3, §4, §5

[11] = tested on: PI3Kd; parameters: method as in PMID 29631787; details: inhibitory potential against PI3Kd; cited from earlier work

SMILES	IC50 [1]	IC50 [2]	IC50 [3]	IC50 [4]	IC50 [5]	IC50 [6]	IC50 [8]	IC50 [9]	IC50 [10]	also measured
N#Cc1c(-c2cccs2)cc(-c2ccco2)nc1-c1c[nH]c2ccccc12 [Compound 13]	4.8 µg/mL (≈ 13.1 µM)	15.9 µg/mL (≈ 43.3 µM)	7.8 µg/mL (≈ 21.2 µM)	21 µg/mL (≈ 57.2 µM)	44.3 µg/mL (≈ 121 µM)	8.6 µg/mL (≈ 23.4 µM)	–	–	–	–
Nc1n[nH]c2ncc3c(c12)-c1ccccc1CC3 [Compound V]	–	–	–	–	–	–	–	–	–	IC50 [7]: 6.9 µM
C1=C(c2ccco2)n2c(nc3ccccc32)SC1c1cccs1 (centres unmarked) [Compound 11]	19.5 µg/mL (≈ 58 µM)	18.2 µg/mL (≈ 54.1 µM)	15.9 µg/mL (≈ 47.3 µM)	19.5 µg/mL (≈ 58 µM)	42 µg/mL (≈ 125 µM)	18.5 µg/mL (≈ 55 µM)	4.3 µg/mL (≈ 12.8 µM)	24.8 µg/mL (≈ 73.7 µM)	24 µg/mL (≈ 71.3 µM)	–
COc1ncc(-c2cc(NC(=O)c3coc(CN4CCN(C(C)C)CC4)n3)c3cnn(C)c3n2)cc1NS(C)(=O)=O [Compound I]	–	–	–	–	–	–	–	–	–	IC50 [11]: 0.0084 µM
N#Cc1c(-c2cccs2)cc(-c2ccco2)nc1Cl [Compound 15]	36.8 µg/mL (≈ 128 µM)	17.5 µg/mL (≈ 61 µM)	14.7 µg/mL (≈ 51.3 µM)	49.4 µg/mL (≈ 172 µM)	22 µg/mL (≈ 76.7 µM)	12 µg/mL (≈ 41.8 µM)	21 µg/mL (≈ 73.2 µM)	23.5 µg/mL (≈ 82 µM)	21.5 µg/mL (≈ 75 µM)	–
c1coc(-c2cc(-c3cccs3)n3nnnc3n2)c1 [Compound 10]	22.8 µg/mL (≈ 84.7 µM)	4.5 µg/mL (≈ 16.7 µM)	18.7 µg/mL (≈ 69.4 µM)	18.2 µg/mL (≈ 67.6 µM)	33.3 µg/mL (≈ 124 µM)	7.3 µg/mL (≈ 27.1 µM)	2.9 µg/mL (≈ 10.8 µM)	–	28.5 µg/mL (≈ 106 µM)	–
c1coc(-c2cc(-c3cccs3)n3cnnc3n2)c1 [Compound 9]	14.7 µg/mL (≈ 54.8 µM)	19.6 µg/mL (≈ 73.1 µM)	17.2 µg/mL (≈ 64.1 µM)	11.5 µg/mL (≈ 42.9 µM)	24.3 µg/mL (≈ 90.6 µM)	18.5 µg/mL (≈ 69 µM)	43.2 µg/mL (≈ 161 µM)	23.5 µg/mL (≈ 87.6 µM)	32.5 µg/mL (≈ 121 µM)	–
Cc1cnc2[nH]nc(N)c2c1-c1ccccc1 [Compound VI]	–	–	–	–	–	–	–	–	–	IC50 [7]: 39.8 µM
Nc1nn2c(-c3cccs3)cc(-c3ccco3)nc2c1/N=N/c1ccc([N+](=O)[O-])cc1 [Compound 7]	35.2 µg/mL (≈ 81.6 µM)	8.3 µg/mL (≈ 19.2 µM)	13.7 µg/mL (≈ 31.8 µM)	44.5 µg/mL (≈ 103 µM)	15 µg/mL (≈ 34.8 µM)	12 µg/mL (≈ 27.8 µM)	3.7 µg/mL (≈ 8.58 µM)	21.5 µg/mL (≈ 49.8 µM)	12 µg/mL (≈ 27.8 µM)	–
CC1Cc2cnc3[nH]nc(N)c3c2-c2ccccc21 (centres unmarked) [Compound IV]	–	–	–	–	–	–	–	–	–	IC50 [7]: 4.7 µM
N#Cc1c(-c2cccs2)cc(-c2ccco2)nc1OCC(=O)N/N=C/c1ccc([N+](=O)[O-])cc1 [Compound 20]	31 µg/mL (≈ 65.5 µM)	8.5 µg/mL (≈ 18 µM)	12.2 µg/mL (≈ 25.8 µM)	49.5 µg/mL (≈ 105 µM)	24.7 µg/mL (≈ 52.2 µM)	11.5 µg/mL (≈ 24.3 µM)	11.3 µg/mL (≈ 23.9 µM)	41.5 µg/mL (≈ 87.7 µM)	10.5 µg/mL (≈ 22.2 µM)	–
COc1ncc(-c2cc(O[C@@H]3CCN(C(=O)C4CCOCC4)C3)c3cnn(C)c3n2)cc1NS(C)(=O)=O [Compound II]	–	–	–	–	–	–	–	–	–	IC50 [11]: 0.0053 µM
CCOC(=O)COc1nc(-c2ccco2)cc(-c2cccs2)c1C#N [Compound 18]	23 µg/mL (≈ 64.9 µM)	22 µg/mL (≈ 62.1 µM)	21.5 µg/mL (≈ 60.7 µM)	25.5 µg/mL (≈ 72 µM)	36.7 µg/mL (≈ 104 µM)	9 µg/mL (≈ 25.4 µM)	25 µg/mL (≈ 70.5 µM)	23.5 µg/mL (≈ 66.3 µM)	24.5 µg/mL (≈ 69.1 µM)	–
N#Cc1c(-c2cccs2)cc(-c2ccco2)nc1OCC(=O)N/N=C1/C(=O)Nc2ccccc21 [Compound 21]	19.8 µg/mL (≈ 42.2 µM)	10.9 µg/mL (≈ 23.2 µM)	9.5 µg/mL (≈ 20.2 µM)	17 µg/mL (≈ 36.2 µM)	–	5 µg/mL (≈ 10.7 µM)	23.3 µg/mL (≈ 49.6 µM)	34 µg/mL (≈ 72.4 µM)	38.2 µg/mL (≈ 81.4 µM)	–
COc1cccc2c1C(=O)c1c(O)c3c(c(O)c1C2=O)C[C@@](O)(C(=O)CO)C[C@@H]3O[C@H]1C[C@H](N)[C@H](O)[C@H](C)O1 [DOX, reference compound]	–	–	–	–	–	–	–	–	–	H460 IC50 ([8]; 48 h): 6.50 µg/mL; HEP2 IC50 ([1]; 48 h): 5.60 µg/mL; FADU IC50 [2]: 7.00 µg/mL; CaCo2 IC50 ([9]; 48 h): 6.00 µg/mL; MCF7 IC50 ([3]; 48 h): 4.50 µg/mL; T47D IC50 [4]: 4.00 µg/mL; VERO IC50 [10]: 23.00 µg/mL; HCT116 IC50 ([5]; 48 h): 5.50 µg/mL; HEPG2 IC50 ([6]; 48 h): 4.58 µg/mL
N#Cc1c(-c2cccs2)cc(-c2ccco2)nc1NN [Compound 17]	24 µg/mL (≈ 85 µM)	10.5 µg/mL (≈ 37.2 µM)	34 µg/mL (≈ 120 µM)	4.9 µg/mL (≈ 17.4 µM)	19.3 µg/mL (≈ 68.4 µM)	4.9 µg/mL (≈ 17.4 µM)	12.7 µg/mL (≈ 45 µM)	24 µg/mL (≈ 85 µM)	16.5 µg/mL (≈ 58.4 µM)	–
N#Cc1c(-c2cccs2)cc(-c2ccco2)nc1OCC(=O)NN [Compound 19]	43.5 µg/mL (≈ 128 µM)	20.5 µg/mL (≈ 60.2 µM)	39.5 µg/mL (≈ 116 µM)	32 µg/mL (≈ 94 µM)	–	24.2 µg/mL (≈ 71.1 µM)	41.5 µg/mL (≈ 122 µM)	10.8 µg/mL (≈ 31.7 µM)	36 µg/mL (≈ 106 µM)	–
Clc1nc(-c2ccco2)cc(-c2cccs2)c1-c1nnn[nH]1 [Compound 16]	31 µg/mL (≈ 94 µM)	9 µg/mL (≈ 27.3 µM)	21 µg/mL (≈ 63.7 µM)	8.9 µg/mL (≈ 27 µM)	27 µg/mL (≈ 81.9 µM)	9.7 µg/mL (≈ 29.4 µM)	19.4 µg/mL (≈ 58.8 µM)	18.2 µg/mL (≈ 55.2 µM)	4.5 µg/mL (≈ 13.6 µM)	–
